# Experimental data reported in patent US20250032403A1, “COMPOSITIONS FOR TREATING PERIODONTAL DISEASES” (GR Biosystems, Inc., priority 2017, published 2025).
# What was measured:
# HGF-1 cells = assay: Cell viability of HGF-1 cells incubated with deferoxamine; assay type: cell-based, human; conditions: HGF-1, deferoxamine 50, 100, 150 μM
# Method: To better characterize the effectiveness of an iron chelator in regulating the upregulation of MMPs, HGF-1 cells were incubated with varying therapeutically relevant concentrations of deferoxamine (50, 100, 150 μM).
# MMP-13 = conditions: HGF-1, FAC 20, 50 and 100 μM, 48 hours, FIG. 8
# Method: (§1) MMP inhibition was tested using CMK and deferoxamine (DES). Ferric ammonium citrate solid (FAC, Amresco) was prepared in 1 mM hydrochloric acid to form a 50 mM stock solution. Iron solutions were freshly made for each experiment and the iron content quantified through a colorimetric assay. Cells were induced with FAC concentrations of 20, 50, and 100 μM, LPS and CMK or a combination, and the cells were allowed to grow in the incubator for 48 hours.
# (§2) During the protein extraction, media was collected, flash frozen and saved for later analysis, including Western Blot and ELISA. Cells were washed with cold PBS and lysed with RIPA buffer (150 mM NaCl, 50 mM Tris, 1% Sodium deoxycholate, 1% Triton X-100 and 0.1% SDS). Cells were collected with a cell scraper and centrifuged at 14000 rpms for 30 minutes. The supernatant was collected and assayed for protein concentration. Samples were mixed with 4×SDS loading buffer (40% Glycerol, 8% SDS, 200 mM Tris-HCl, 400 mM dithiothreitol, 0.005% bromophenol blue) for further analysis.
# (§3) Gel electrophoresis was conducted using 12% sodium dodecyl sulfate (SDS) and polyacrylamide gels. Equal amounts (30-50 μg) of protein were loaded in each lane and allowed to separate for 1 hour at 150 V.
# (§4) Proteins from gels were transferred into 0.45 μm nitrocellulose paper (Bio-Rad) using tris-glycine transfer buffer with 20% methanol using 400 mAmp for 90 minutes. […]
# Human MMP-8; MMP8 = conditions: HGF-1, 100 μM FAC, FIG. 17
# Method: (§5) Gene expression of MMPs was evaluated after treatment with CMK and deferoxamine. Tissue culture was washed with 1×PBS prior to collection of samples. Cells were lysed and RNA purified using an RNeasy mini kit (Cat #74104) from Qiagen. RNA prep Kit was used according to manufacturer's protocol. All samples were treated with Qiagen DNase (Cat #79254). One microgram of RNA was used for reverse transcription and subsequent SYBR® Green real time PCR for the genes of interest as previously described. Reverse transcription kits (Cat #330401) and SYBR Green real-time PCR master mixes (Cat #330523) were purchased from Qiagen (Louisville, KY).
# (§6) The following primers and probes were used: Human MMP-2; MMP2 (Cat #PPH00151B), Human MMP-8; MMP8 (Cat #PPH00908C), Human MMP-13; MMP13 (Cat #PPH00121B), Human MMP-14; MMP14 (Cat #PPH00198C), and Human glyceraldehyde 3-phosphate dehydrogenase; GAPDH (Cat #PPH00150F).
# (§7) FIG. 17 is a summary of the qPCR analysis for each MMP.
# MMPs = conditions: HGF-1, 100 μM FAC, FIG. 17
# Method: as §5, §6, §7
# MMP-3 = assay type: cell-based, human; conditions: HGF-1 stimulated with FAC 20, 50 and 100 μM, 48 hours, FIG. 11
# Method: MMP inhibition was tested using CMK and deferoxamine (DES).
# The supernatant was collected and assayed for protein concentration.
# MMP-9 = assay: Western blot of MMP-9 in HGF-1 cells treated with FAC or deferoxamine; assay type: cell-based, human; conditions: HGF-1 stimulated with FAC 20, 50 and 100 μM, 48 hours, FIG. 10
# Method: as §1, §2, §3, §4
# MMP-2 = assay: Western blot of MMP-2 in HGF-1 cells treated with FAC, CMK or deferoxamine; assay type: cell-based, human; conditions: HGF-1, FAC 20, 50 and 100 μM, 48 hours, FIG. 7
# Method: as §1, §2, §3, §4
# MMP-14 = assay: Western blot of MMP-14 in HGF-1 cells treated with FAC, CMK or deferoxamine; assay type: cell-based, human; conditions: HGF-1, FAC 20, 50 and 100 μM, 48 hours, FIG. 9
# Method: as §1, §2, §3, §4
Compound,Cell viability (HGF-1 cells),presence of MMP-13 protein (MMP-13),MMP-8 gene expression (qPCR) (Human MMP-8; MMP8),gene expression of the MMPs (qPCR) (MMPs),MMP-3 protein expression (MMP-3),MMP-9 protein expression (MMP-9),presence of MMP-2 protein (MMP-2),presence of MMP-14 protein (MMP-14)
CC(=O)N(O)CCCCCNC(=O)CCC(=O)N(O)CCCCCNC(=O)CCC(=O)N(O)CCCCCN [deferoxamine],unaffected,–,–,–,–,–,–,–
Ferric ammonium citrate [FAC],–,dose-dependent increased presence,except for MMP-8,acted as an inducer of gene expression of the MMPs,increased expression,increased expression,dose-dependent increased presence,dose-dependent increased presence
